The source of these data is US11957687B2 (REGENERON PHARMACEUTICALS, INC., priority 2019, dated 2024).

The target in one data set is HSD17B4 (Homo sapiens (Human), UniProt P51659). Briefly: HSD17B4 enzymatic blocking assay. It is filed as biochemical. Conditions: 23.46 μM Estradiol, 1500 μM NAD; read-out: Inhibition of HSD17B4 IC50. The procedure:
To screen compounds of the disclosure for their ability to block HSD17B4 function, an enzymatic blocking assay was performed. For the assay, HSD17B4 activity was measured by detecting NADH formation from oxidation of Estradiol using a NADH Glo luminescence assay (Promega, #Cat. No. G9062). Compounds of the disclosure were evaluated in a dose titration assay where the compounds were titrated at 10-point dose curve using an Echo-555 liquid handling dispenser. HSD17B4 (SEQ ID NO: 4, expressed in mammalian cells) was added at a final concentration of 2.5 ng/μL in a buffer containing 50 mM Tris-HCl, pH 7.5, Pluronic F-127 0.05%, Tween20 0.01%, BSA 0.01%, into a low volume white 384-well assay plate. Compounds were incubated with the enzyme for 15 min at 20° C. The assay reaction was then initiated by addition of 23.46 μM Estradiol substrate (Sigma, catalog #E2758-250MG, CAS: 50-28-2) and 1500 μM NAD co-factor, and the reaction mixture was incubated for 45 min at 20° C. DMSO at a concentration of 0.5% was used as a negative control and a ‘no substrate’ control was used a positive control in the assay. Detection reagent was then added as per manufacturer's instructions, and the plate was subsequently incubated in the dark for 1 hour at room temperature, NADH generated was detected in the luminescence mode on the Envision Perkin Elmer plate reader. The IC50 values were determined using Dotmatics analysis software.

A short description of data set [1]: Microsome stability assay, human liver microsomes. The class given is in vitro ADME. Conditions: 1 μM compound, 0.5 mg/mL microsomal protein; for microsomal CLint at 1 μM / half-life at 1 μM / microsomal CLint at 1 h, 1 µM / half-life at 1 h, 1 µM: human, human liver microsomes, pooled, NADPH, 37° C.; for microsomal CLint at 1 μM / microsomal CLint at 1 h, 1 µM: read-out: Microsome Stability Human liver microsomes Cl; for half-life at 1 μM / half-life at 1 h, 1 µM: read-out: Microsome Stability Human liver microsomes T½. The essentials:
(§1)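 Compound at 1 μM incubated at 37° C with pooled human or mouse liver microsomes (0.5 mg/mL protein) plus NADPH regenerating system, sampled at 0–60 min; a 60-min no-NADPH incubation also included. Single replicate; LC/MS/MS disappearance from analyte/internal standard peak area ratios, without standard curve.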
(In general: Liver microsomes are a subcellular fraction often used to study metabolism.)

The target in the next data set is HSD17B2 (Homo sapiens (Human), UniProt P37059). Briefly: HSD17B2 enzymatic blocking assay. It is filed as biochemical. Conditions: 1.8 μM Estradiol, 650 μM NAD; read-out: Inhibition of HSD17B2 IC50. The procedure, abridged:
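Mammalian-expressed enzyme at 2 ng/μL in 50 mM Tris-HCl pH 7.5 with detergents/BSA, preincubated 15 min at 20° C. with compound (10-point titration). Reaction with 1.8 μM estradiol and 650 μM NAD ran 45 min at 20° C.; NADH measured by NADH-Glo luminescence and IC50 derived.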

A further data set concerns the target HSD17B13 (Homo sapiens (Human), UniProt Q7Z5P4). Briefly: HSD17B13 enzymatic inhibition assay (150 nM or 50 nM HSD17B13). It is filed as biochemical. Conditions: 50 nM HSD17B13; read-out: Inhibition of 50 nM of HSD17B13 IC50.
For another data set, the target named is HSD17B10 (Homo sapiens (Human), UniProt Q99714). Briefly: HSD17B10 enzymatic blocking assay. The class given is biochemical. Conditions: 25 μM Estradiol, 500 μM NAD; read-out: Inhibition of HSD17B10 IC50. The procedure: To screen compounds of the disclosure for their ability to block HSD17B10 function, an enzymatic blocking assay was performed. For the assay, HSD17B10 activity was measured by detecting NADH formation from oxidation of Estradiol using a NADH Glo luminescence assay (Promega, #Cat. No. G9062). Compounds of the disclosure were evaluated in a dose titration assay where the compounds were titrated at 10-point dose curve using an Echo-555 liquid handling dispenser. HSD17B10 (Seq. ID NO: 5, expressed in mammalian cells) was added at a final concentration of 31.25 ng/well in a buffer containing 0.2M Tris-HCl, pH 7.5, into a low volume white 384-well assay plate. Compounds were incubated with the enzyme for 30 minutes at room temperature. The assay reaction was then initiated by addition of 25 μM Estradiol substrate (Sigma, catalog #E2758-250MG, CAS: 50-28-2) and 500 μM NAD co-factor, and the reaction mixture was incubated for 3 hours at room temperature. DMSO at a concentration of 0.5% was used as a negative control and a ‘no substrate’ control was used a positive control in the assay. Detection reagent was then added as per manufacturer's instructions, and the plate was subsequently incubated in the dark for 1 hour at room temperature, NADH generated was detected in the luminescence mode on the Envision Perkin Elmer plate reader. The IC50 values were determined using Dotmatics analysis software.

The target in another data set is HSD17B1 (Homo sapiens (Human), UniProt P14061). Briefly: HSD17B1 enzymatic blocking assay. Conditions: 25 μM Estradiol, 500 μM NAD; read-out: Inhibition of HSD17B1 IC50. The class given is biochemical. The essentials:
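Activity followed as NADH formed on estradiol oxidation, read by NADH-Glo luminescence after 1 h detection in the dark at room temperature. Compounds preincubated with enzyme 30 min at room temperature; 0.5% DMSO and no-substrate controls. IC50 fitted from luminescence.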

A short description of data set [2]: Microsome stability assay, mouse liver microsomes. Conditions: 1 μM compound, 0.5 mg/mL microsomal protein; for microsomal CLint at 1 μM / half-life at 1 μM / microsomal CLint at 1 h, 1 µM / half-life at 1 h, 1 µM: mouse, mouse liver microsomes, pooled, NADPH, 37° C.; for microsomal CLint at 1 μM / microsomal CLint at 1 h, 1 µM: read-out: Microsome Stability Mouse liver microsomes Cl; for half-life at 1 μM / half-life at 1 h, 1 µM: read-out: Microsome Stability Mouse liver microsomes T½. It is filed as in vitro ADME. The procedure, abridged:
as §1

By IC50 is commonly meant the point on the concentration scale where inhibition reaches its midpoint.

HSD17B10, sequence (Q99714 other isoform, or with tags, fused parts or gaps): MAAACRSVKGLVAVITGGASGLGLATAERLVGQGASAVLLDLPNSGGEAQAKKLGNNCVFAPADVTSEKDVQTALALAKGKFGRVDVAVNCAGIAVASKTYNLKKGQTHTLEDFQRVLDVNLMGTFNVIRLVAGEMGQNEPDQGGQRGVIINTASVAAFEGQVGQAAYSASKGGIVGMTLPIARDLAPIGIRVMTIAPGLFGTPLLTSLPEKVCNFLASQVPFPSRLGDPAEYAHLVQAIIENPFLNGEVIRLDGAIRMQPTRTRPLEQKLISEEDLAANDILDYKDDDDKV
HSD17B2, sequence (P37059 other isoform, or with tags, fused parts or gaps): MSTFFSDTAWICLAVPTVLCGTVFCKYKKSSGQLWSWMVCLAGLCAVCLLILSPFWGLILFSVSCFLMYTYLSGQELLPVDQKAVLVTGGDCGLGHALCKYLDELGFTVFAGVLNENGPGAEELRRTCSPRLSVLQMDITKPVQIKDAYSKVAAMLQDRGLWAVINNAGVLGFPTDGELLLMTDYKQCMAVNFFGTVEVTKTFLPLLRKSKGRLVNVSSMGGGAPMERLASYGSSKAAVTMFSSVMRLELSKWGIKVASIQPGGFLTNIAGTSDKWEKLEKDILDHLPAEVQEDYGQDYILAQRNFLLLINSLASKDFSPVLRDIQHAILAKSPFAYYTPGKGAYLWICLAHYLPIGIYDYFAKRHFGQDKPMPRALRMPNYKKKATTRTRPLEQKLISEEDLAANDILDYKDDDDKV
HSD17B13, sequence (Q7Z5P4 other isoform, or with tags, fused parts or gaps): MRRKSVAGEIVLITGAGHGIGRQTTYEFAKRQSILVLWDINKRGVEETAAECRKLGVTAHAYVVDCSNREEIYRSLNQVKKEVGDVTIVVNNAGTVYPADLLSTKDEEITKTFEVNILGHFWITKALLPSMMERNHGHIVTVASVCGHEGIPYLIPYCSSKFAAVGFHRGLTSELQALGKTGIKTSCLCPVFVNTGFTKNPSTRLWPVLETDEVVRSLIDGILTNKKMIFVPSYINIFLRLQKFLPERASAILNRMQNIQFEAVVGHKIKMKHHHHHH
HSD17B1, sequence (P14061 other isoform, or with tags, fused parts or gaps): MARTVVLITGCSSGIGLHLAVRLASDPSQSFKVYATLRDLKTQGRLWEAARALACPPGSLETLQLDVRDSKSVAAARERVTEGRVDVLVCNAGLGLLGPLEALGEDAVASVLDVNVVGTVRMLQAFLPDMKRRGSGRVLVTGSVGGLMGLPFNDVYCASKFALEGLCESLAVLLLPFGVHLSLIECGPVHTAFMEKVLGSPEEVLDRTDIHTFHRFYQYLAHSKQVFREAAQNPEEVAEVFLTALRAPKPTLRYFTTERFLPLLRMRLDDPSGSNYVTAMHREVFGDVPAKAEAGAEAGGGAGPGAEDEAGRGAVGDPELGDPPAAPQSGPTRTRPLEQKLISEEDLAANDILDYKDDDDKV
HSD17B4, sequence (P51659 other isoform, or with tags, fused parts or gaps): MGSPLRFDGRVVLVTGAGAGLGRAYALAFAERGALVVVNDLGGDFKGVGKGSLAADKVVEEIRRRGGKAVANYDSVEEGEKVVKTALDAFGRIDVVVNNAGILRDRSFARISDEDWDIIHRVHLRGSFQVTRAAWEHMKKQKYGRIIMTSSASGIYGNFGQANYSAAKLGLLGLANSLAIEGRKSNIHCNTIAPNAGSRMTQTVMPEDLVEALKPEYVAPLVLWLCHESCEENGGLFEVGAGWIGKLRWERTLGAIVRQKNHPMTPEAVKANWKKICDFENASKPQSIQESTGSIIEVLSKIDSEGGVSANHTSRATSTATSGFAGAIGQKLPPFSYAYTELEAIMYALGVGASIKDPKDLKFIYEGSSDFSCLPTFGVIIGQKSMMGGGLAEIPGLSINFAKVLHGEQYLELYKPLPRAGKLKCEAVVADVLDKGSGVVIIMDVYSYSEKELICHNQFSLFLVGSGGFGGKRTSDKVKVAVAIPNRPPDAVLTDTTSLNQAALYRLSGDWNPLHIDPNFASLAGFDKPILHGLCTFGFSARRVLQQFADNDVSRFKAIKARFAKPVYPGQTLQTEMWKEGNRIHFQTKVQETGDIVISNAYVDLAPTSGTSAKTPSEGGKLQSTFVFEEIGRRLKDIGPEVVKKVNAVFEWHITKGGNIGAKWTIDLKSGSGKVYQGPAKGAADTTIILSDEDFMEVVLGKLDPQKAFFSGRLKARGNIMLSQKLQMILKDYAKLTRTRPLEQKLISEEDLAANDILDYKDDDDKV

Consider `O=C(NC1c2ccc(Cl)cc2Oc2cc(Cl)ccc21)c1ccc(C(F)(F)F)[nH]c1=O` [Compound 50, N-(3,6-dichloro-9H-xanthen-9-yl)-2-oxo-6-(trifluoromethyl)-1,2-dihydropyridine-3-carboxamide], for which the IC50 was greater than 100 µM at HSD17B4; 5.16 µM at HSD17B2; 0.12 µM on HSD17B13; greater than 30 µM on HSD17B10; 4.22 µM at HSD17B1. Besides, in data set [1], the “Microsome Stability Human liver microsomes % Remaining @60 min” value is 101.00%. Moreover, the microsomal CLint at 1 μM in data set [1] and in data set [2] was less than 9.6 µL/min/mg each time. Further, the half-life at 1 μM in data set [1] and in data set [2] was greater than 2.42 h in each case. The “Microsome Stability Mouse liver microsomes % Remaining @60 min” value in data set [2] was 97.70%.

Turning to `O=C(NC1c2ccc(Cl)cc2Oc2cccc(Cl)c21)c1ccc(C(F)(F)F)[nH]c1=O` (stereo not drawn) [Compound 51, N-(1,6-dichloro-9H-xanthen-9-yl)-2-oxo-6-(trifluoromethyl)-1,2-dihydropyridine-3-carboxamide], the IC50 on HSD17B4 was greater than 100 µM; on HSD17B2, 8.71 µM; on HSD17B13, 0.23 µM; on HSD17B10, greater than 30 µM; on HSD17B1 it was 4.55 µM. In addition, the “Microsome Stability Human liver microsomes % Remaining @60 min” value in data set [1] was found to be 44.00%. In addition, the microsomal CLint at 1 h, 1 µM stood at 23 µL/min/mg in data set [1] and 10.4 µL/min/mg in data set [2]. Further, the half-life at 1 h, 1 µM in data set [1] came to 1 h; in data set [2], 2.22 h. Also, in data set [2], the “Microsome Stability Mouse liver microsomes % Remaining @60 min” value was determined as 73.50%.

As to `Cc1ccc2c(c1)Oc1cc(C)ccc1C2NC(=O)c1ccc(C(F)(F)F)[nH]c1=O` [Compound 52, N-(3,6-dimethyl-9H-xanthen-9-yl)-2-oxo-6-(trifluoromethyl)-1,2-dihydropyridine-3-carboxamide], the half-maximal inhibitory concentration (IC50) on HSD17B4 was greater than 100 µM; at HSD17B2 it was 8.69 µM; on HSD17B13 it was 0.08 µM; on HSD17B10 it was greater than 30 µM; on HSD17B1, 5.84 µM. For the same compound, the “Microsome Stability Human liver microsomes % Remaining @60 min” value in data set [1] came out at 110.00%. Besides, the microsomal CLint at 1 μM in data set [1] and in data set [2] was less than 9.6 µL/min/mg in each case. For the same compound, the half-life at 1 μM in data set [1] and in data set [2] was greater than 2.42 h in each case. Moreover, the “Microsome Stability Mouse liver microsomes % Remaining @60 min” value in data set [2] is 125.00%.

With `Cc1ccc(C(NC(=O)c2cc(C)c(C(F)(F)F)[nH]c2=O)c2ccc(C)cc2)cc1` [Compound 115, N-(di-p-tolylmethyl)-5-methyl-2-oxo-6-(trifluoromethyl)-1,2-dihydropyridine-3-carboxamide], the IC50 is greater than 100 µM at HSD17B4; 11 µM at HSD17B2; 0.45 µM on HSD17B13; greater than 30 µM on HSD17B10; 11.2 µM on HSD17B1.

Take `Cc1ccc2c(c1)Oc1cc(Cl)ccc1C2NC(=O)c1ccc(C(F)(F)F)[nH]c1=O` (stereo not drawn) [Compound 138, N-(3-chloro-6-methyl-9H-xanthen-9-yl)-2-oxo-6-(trifluoromethyl)-1,2-dihydropyridine-3-carboxamide]: at HSD17B4, the IC50 is greater than 100 µM. In addition, in data set [1], the “Microsome Stability Human liver microsomes % Remaining @60 min” value is 72.40%; the microsomal CLint at 1 h, 1 µM is 17.8 µL/min/mg; the half-life at 1 h, 1 µM was found to be 1.3 h. Besides, the IC50 at HSD17B2 was 16.1 µM. Also, the IC50 on HSD17B13 turned out to be 0.02 µM. The IC50 on HSD17B10 is greater than 30 µM. Besides, the half-maximal inhibitory concentration (IC50) on HSD17B1 was determined as 2.07 µM. Further, in data set [2], the “Microsome Stability Mouse liver microsomes % Remaining @60 min” value turned out to be 97.40%, the microsomal CLint at 1 μM was less than 9.6 µL/min/mg and the half-life at 1 μM was greater than 2.42 h.

Take `CCc1ccc2c(c1)Oc1ccccc1C2NC(=O)c1ccc(C(F)(F)F)[nH]c1=O` (stereo not drawn) [Compound 140, N-(3-ethyl-9H-xanthen-9-yl)-2-oxo-6-(trifluoromethyl)-1,2-dihydropyridine-3-carboxamide]: the 50% inhibitory concentration (IC50) at HSD17B4 was 54.2 µM; on HSD17B2, 10.7 µM; at HSD17B13, 0.2 µM; on HSD17B10, greater than 30 µM; on HSD17B1 it was 3.53 µM.

For the compound `O=C(NC1c2ccccc2Oc2cc(CC(F)(F)F)ccc21)c1ccc(C(F)(F)F)[nH]c1=O` (stereo not drawn) [Compound 141, 2-oxo-N-(3-(2,2,2-trifluoroethyl)-9H-xanthen-9-yl)-6-(trifluoromethyl)-1,2-dihydropyridine-3-carboxamide], the half-inhibitory concentration (IC50) is 58.2 µM on HSD17B4; 7.3 µM on HSD17B2; 0.36 µM on HSD17B13; greater than 30 µM at HSD17B10; 3.62 µM on HSD17B1.

For `Cc1ccc2c(c1)Oc1cccc(Cl)c1C2NC(=O)c1ccc(C(F)(F)F)[nH]c1=O` (stereo not drawn) [Compound 190, N-(1-chloro-6-methyl-9H-xanthen-9-yl)-2-oxo-6-(trifluoromethyl)-1,2-dihydropyridine-3-carboxamide], the half-inhibitory concentration (IC50) at HSD17B4 is 84.5 µM; on HSD17B2, 8.71 µM; on HSD17B13, 0.09 µM; on HSD17B10, greater than 30 µM; at HSD17B1, 3.2 µM. Besides, the “Microsome Stability Human liver microsomes % Remaining @60 min” value in data set [1] was 0.62%. Also, the microsomal CLint at 1 h, 1 µM in data set [1] was 172 µL/min/mg; in data set [2], 17.4 µL/min/mg. The results for the half-life at 1 h, 1 µM in data set [1] and in data set [2] were 0.135 h and 1.33 h, respectively. In addition, in data set [2], the “Microsome Stability Mouse liver microsomes % Remaining @60 min” value is recorded as 59.10%.

Turning to `Cc1ccc2c(c1)Oc1ccccc1C2NC(=O)c1c(C)cc(C(F)(F)F)[nH]c1=O` (stereo not drawn) [Compound 198, 4-methyl-N-(3-methyl-9H-xanthen-9-yl)-2-oxo-6-(trifluoromethyl)-1,2-dihydropyridine-3-carboxamide], the IC50 at HSD17B4 is greater than 100 µM; on HSD17B2, greater than 100 µM; at HSD17B13, 0.4 µM; on HSD17B10, greater than 30 µM; on HSD17B1, greater than 30 µM.
